Earlier results in PubChem BioAssay AID1259409 (Chemical Carcinogenesis Research Information System (CCRIS), 2018).

System: rodent chemically induced tumor inhibition, incidence and multiplicity
Assay: CCRIS tumor inhibitor studies
Conditions: Route [Inhibitor]: ORAL, Species: RAT

Cn1c(=O)c2c(ncn2C)n(C)c1=O
tumour outcome (control, treated, inhibition, significance) (Carcinogen: 1,2-DIMETHYLHYDRAZINE, 540-73-8, Dose [Inhibitor]: 0, 600 MG/L IN DRINKING WATER FOR DURATION OF STUDY BEGINNING 7 D PRIOR TO CARCINOGEN TREATMENT (STUDY DURATION: 8 MO), Strain/Sex: BD6/MALE, Target Tissue: Type of Lesion: INTESTINE: TUMOR, Dose [Carcinogen]: 20 MG/KG BW 1/WK FOR 20 WK, Promoter: NONE USED): 100%, 100%, 0%, not significant
tumour outcome (control, treated, inhibition, significance) (Carcinogen: 2-ACETYLAMINOFLUORENE, 53-96-3, Dose [Inhibitor]: 0, 0.1% IN DRINKING WATER FOR FIRST 12 WK (STUDY DURATION: 30 WK), Strain/Sex: ACI/MALE, Target Tissue: Type of Lesion: LIVER: HEPATOCELLULAR ADENOMA, Dose [Carcinogen]: 0.02% IN DIET FOR FIRST 12 WK): 100%, 78%, 22%, not significant
tumour outcome (control, treated, inhibition, significance) (Carcinogen: 2-ACETYLAMINOFLUORENE, 53-96-3, Dose [Inhibitor]: 0, 0.1% IN DRINKING WATER FOR FIRST 12 WK (STUDY DURATION: 30 WK), Strain/Sex: ACI/MALE, Target Tissue: Type of Lesion: LIVER: HEPATOCELLULAR CARCINOMA, Dose [Carcinogen]: 0.02% IN DIET FOR FIRST 12 WK): 44%, 22%, 50%, not significant
tumour outcome (control, treated, inhibition, significance) (Carcinogen: 2-ACETYLAMINOFLUORENE, 53-96-3, Dose [Inhibitor]: 0, 0.1% IN DRINKING WATER FOR FIRST 12 WK (STUDY DURATION: 30 WK), Strain/Sex: ACI/MALE, Target Tissue: Type of Lesion: SMALL INTESTINE: ADENOCARCINOMA, Dose [Carcinogen]: 0.02% IN DIET FOR FIRST 12 WK): 9%, 17%, -89%, not significant
tumour outcome (control, treated, inhibition, significance) (Carcinogen: 2-ACETYLAMINOFLUORENE, 53-96-3, Dose [Inhibitor]: 0, 0.15% IN DRINKING WATER FOR FIRST 12 WK (STUDY DURATION: 30 WK), Strain/Sex: ACI/MALE, Target Tissue: Type of Lesion: LIVER: HEPATOCELLULAR ADENOMA, Dose [Carcinogen]: 0.02% IN DIET FOR FIRST 12 WK): 100%, 63%, 37%, p<0.01
tumour outcome (control, treated, inhibition, significance) (Carcinogen: 2-ACETYLAMINOFLUORENE, 53-96-3, Dose [Inhibitor]: 0, 0.15% IN DRINKING WATER FOR FIRST 12 WK (STUDY DURATION: 30 WK), Strain/Sex: ACI/MALE, Target Tissue: Type of Lesion: LIVER: HEPATOCELLULAR CARCINOMA, Dose [Carcinogen]: 0.02% IN DIET FOR FIRST 12 WK): 44%, 8%, 82%, p<0.02
tumour outcome (control, treated, inhibition, significance) (Carcinogen: 2-ACETYLAMINOFLUORENE, 53-96-3, Dose [Inhibitor]: 0, 0.15% IN DRINKING WATER FOR FIRST 12 WK (STUDY DURATION: 30 WK), Strain/Sex: ACI/MALE, Target Tissue: Type of Lesion: SMALL INTESTINE: ADENOCARCINOMA, Dose [Carcinogen]: 0.02% IN DIET FOR FIRST 12 WK): 9%, 13%, -44%, not significant
tumour outcome (control, treated, inhibition, significance) (Carcinogen: 2-ACETYLAMINOFLUORENE, 53-96-3, Dose [Inhibitor]: 0, 0.2% IN DRINKING WATER FOR FIRST 12 WK (STUDY DURATION: 30 WK), Strain/Sex: ACI/MALE, Target Tissue: Type of Lesion: LIVER: HEPATOCELLULAR ADENOMA, Dose [Carcinogen]: 0.02% IN DIET FOR FIRST 12 WK): 100%, 35%, 65%, p<0.001
tumour outcome (control, treated, inhibition, significance) (Carcinogen: 2-ACETYLAMINOFLUORENE, 53-96-3, Dose [Inhibitor]: 0, 0.2% IN DRINKING WATER FOR FIRST 12 WK (STUDY DURATION: 30 WK), Strain/Sex: ACI/MALE, Target Tissue: Type of Lesion: LIVER: HEPATOCELLULAR CARCINOMA, Dose [Carcinogen]: 0.02% IN DIET FOR FIRST 12 WK): 44%, 5%, 89%, p<0.02
tumour outcome (control, treated, inhibition, significance) (Carcinogen: 2-ACETYLAMINOFLUORENE, 53-96-3, Dose [Inhibitor]: 0, 0.2% IN DRINKING WATER FOR FIRST 12 WK (STUDY DURATION: 30 WK), Strain/Sex: ACI/MALE, Target Tissue: Type of Lesion: SMALL INTESTINE: ADENOCARCINOMA, Dose [Carcinogen]: 0.02% IN DIET FOR FIRST 12 WK): 9%, 10%, -11%, not significant
tumour outcome (control, treated, inhibition, significance) (Carcinogen: 2-AMINO-1-METHYL-6-PHENYL-1H-IMIDAZO[4,5-B]PYRID INE, 105650-23-5, Dose [Inhibitor]: 0, 0.1% IN DRINKING WATER FOR 52 WK (STUDY DURATION: 52 WK), Strain/Sex: F344/FEMALE, Target Tissue: Type of Lesion: MAMMARY GLAND: FIBROADENOMA, Dose [Carcinogen]: 0.02% IN THE DIET FOR 52 WK, Promoter: NONE USED): 2/20 (10%), 0/20 (0%), 100%, not significant
tumour outcome (control, treated, inhibition, significance) (Carcinogen: 2-AMINO-1-METHYL-6-PHENYL-1H-IMIDAZO[4,5-B]PYRIDINE, 105650-23-5, Dose [Inhibitor]: 0, 0.1% IN DRINKING WATER FOR 52 WK (STUDY DURATION: 52 WK), Strain/Sex: F344/FEMALE, Target Tissue: Type of Lesion: MAMMARY GLAND: ADENOCARCINOMA, Dose [Carcinogen]: 0.02% IN THE DIET FOR 52 WK, Promoter: NONE USED): 8/20 (40%), 2/20 (10%), 75%, p< 0.05
tumour outcome (control, treated, inhibition, significance) (Carcinogen: 2-AMINO-1-METHYL-6-PHENYLIMIDAZO[4,5-B]PYRIDINE [105650-23-5], Dose [Inhibitor]: 0.1% IN DRINKING WATER FOR 54 WK (STUDY DURATION: 54 WK), Strain/Sex: F344/DUCRJ/FEMALE, Target Tissue: Type of Lesion: COLON: ADENOMA OR ADENOCARCINOMA, Dose [Carcinogen]: 0.02% IN DIET FOR 54 WK (STUDY DURATION: 54 WK), Promoter: NONE): 3/20 (15%), 15/20 (75%), -400%, p<0.01
